From patent US4315938A, “4-Phenyl-4,5,6,7-tetrahydro-pyrrolo [2,3-c] pyridines and salts thereof” (Boehringer Ingelheim Gmbh, priority 1979, dated 1982)
Like-named read-outs stand apart in the source and are kept apart here.

Columns and labels:
[1] = test system: hypothermic effect caused by reserpine; assay: Reserpine antagonism (elimination of the hypothermic effect caused by reserpine); assay type: in vivo; conditions: Mus musculus, mice, oral, 17 h after 2 mg/kg i.p. reserpine
Method: A further test for determining anti-depressive activity is based on reserpine-antagonism, that is, the elimination of the hypothermic effect caused by reserpine. The test is carried out in mice, 5 animals being used per dosage test. Seventeen hours after i.p. administration of 2 mg/kg of reserpine, the body temperature is measured peripherally while at a room temperature of 19° C. Afterwards, the test substance is administered orally, and the body temperature is measured after 1, 3, 5 and 7 hours. For each measured period a mean effective dose (ED50) is determined. This is the dosage at which the body temperature of the animals treated with reserpine approaches the normal temperature of untreated controls by 50%.

[2] = test system: uptake of serotonin by the neurons (synaptosomes); assay: Inhibition of serotonin uptake by synaptosomes of homogenized cerebrum; assay type: biochemical; conditions: rat cerebrum synaptosomes, 10 minutes at 37° C.; read-out: Serotonin inhibition IC 50
Method: (§1) It is now believed that various forms of depression cause a deficiency of certain physiologically important amines, particularly noradrenaline and serotonin, in certain parts of the brain, and that the amount of such amines may be increased by inhibiting their uptake by neurons.
(§2) The test is performed on the homogenized, isolated cerebrum of the rat. A suspension of synaptosomes thus obtained is incubated with […] noradrenaline and/or serotonin and various concentrations of a solution of the test substance in water for 10 minutes at 37° C. When the incubation is finished, the medium is separated by filtering, and the radioactivity of the suspension of synaptosomes is measured.
(§3) A control test in the absence of the test substance is simultaneously carried out in order to determine the quantity of radioactive amines taken up. The quantity of the test substance in mols which is required to inhibit 50% of the uptake is designated the IC 50.

[3] = test system: uptake of noradrenaline by the neurons (synaptosomes); assay: Inhibition of noradrenaline uptake by synaptosomes of homogenized cerebrum; assay type: biochemical; conditions: rat cerebrum synaptosomes, 10 minutes at 37° C.; read-out: Noradrenaline inhibition IC 50
Method: as §1, §2, §3

[4] = 1 hour, read-out: Reserpine antagonism after 1 hour (ED50)
[5] = 3 hours, read-out: Reserpine antagonism after 3 hours (ED50)
[6] = 5 hours, read-out: Reserpine antagonism after 5 hours (ED50)
[7] = 7 hours, read-out: Reserpine antagonism after 7 hours (ED50)

Q: Which results are given for CN1Cc2c(cc(CN3CCOCC3)n2C)C(c2ccccc2)C1 (stereo not drawn) [1,6-Dimethyl-2-morpholinomethyl-4-phenyl-4,5,6,7-tetrahydropyrrolo[2,3-c]pyridine]?
A: ED50 [1, 4]: > 40 mg/kg; ED50 [1, 5]: 16 mg/kg; ED50 [1, 6]: 10 mg/kg; ED50 [1, 7]: < 40 mg/kg; IC50 [2]: 1600 nM; IC50 [3]: 6600 nM

Q: What does the source list for CN1Cc2c(ccn2C)C(c2ccc(Br)cc2)C1 (stereo not drawn) [1,6-Dimethyl-4-(p-bromophenyl)-4,5,6,7-tetrahydro-pyrrolo[2,3-c]pyridine]?
A: ED50 [1, 4]: 20 mg/kg; ED50 [1, 5]: 6 mg/kg; ED50 [1, 6]: 40 mg/kg; ED50 [1, 7]: 40 mg/kg; IC50 [2]: 90 nM; IC50 [3]: 1250 nM

Q: For CN(CCO)Cc1cc2c(n1C)CN(C)CC2c1ccc(Br)cc1 (stereo not drawn) [1,6-dimethyl-2-N-methyl-N-β-hydroxyethyl-aminomethyl-4-(p-bromophenyl)-4,5,6,7-tetrahydro-pyrrolo[2,3-c]-pyridine dimaleate], which ED50 [1, 4] is on record?
A: 10 mg/kg

Q: What about the ED50 [1, 5] of the same molecule?
A: < 10 mg/kg

Q: And the ED50 [1, 6]?
A: 13 mg/kg

Q: And the ED50 [1, 7]?
A: 10 mg/kg

Q: And the IC50 [2]?
A: 380 nM

Q: And the IC50 [3]?
A: 1300 nM

Q: For CN1Cc2c(cc(Br)n2C)C(c2ccc(Br)cc2)C1 (stereo not drawn) [1,6-dimethyl-2-bromo-4-(p-bromophenyl)-4,5,6,7-tetrahydro-pyrrolo[2,3-c]-pyridine], which ED50 [1, 4] is on record?
A: > 40 mg/kg

Q: What about the ED50 [1, 5] of the same molecule?
A: 14 mg/kg

Q: And the ED50 [1, 6]?
A: < 10 mg/kg

Q: And the ED50 [1, 7]?
A: 10 mg/kg

Q: What about the IC50 [2] of the same molecule?
A: 440 nM

Q: And the IC50 [3]?
A: 1800 nM

Q: How did the ED50 [1, 4] turn out when CN1Cc2c(cc(CN3CCCCCC3)n2C)C(c2ccc(Br)cc2)C1 (stereo not drawn) [1,6-dimethyl-2-hexahydro-azepine-1-yl-methyl-4-(p-bromophenyl)-4,5,6,7-tetrahydro-pyrrolo[2,3-c]-pyridine dimaleate] was run?
A: < 10 mg/kg

Q: And the ED50 [1, 5]?
A: < 10 mg/kg

Q: And the ED50 [1, 6]?
A: 20 mg/kg

Q: And the ED50 [1, 7]?
A: > 40 mg/kg

Q: What does the source list for CN1Cc2c(cc(CN3CCCCC3)n2C)C(c2ccc(Br)cc2)C1 (stereo not drawn) [1,6-dimethyl-2-piperidino-methyl-4-(p-bromophenyl)-4,5,6,7-tetrahydro-pyrrolo-[2,3-c]pyridine dimaleate]?
A: ED50 [1, 4]: > 40 mg/kg; ED50 [1, 5]: 40 mg/kg; ED50 [1, 6]: 40 mg/kg; ED50 [1, 7]: > 40 mg/kg

Q: For CN1Cc2c(cc(CN3CCCC3)n2C)C(c2ccc(Br)cc2)C1 (stereo not drawn) [1,6-dimethyl-2-pyrrolidino-methyl-4-(p-bromophenyl)-4,5,6,7-tetrahydro-pyrrolo-[2,3-c]pyridine dimaleate], which ED50 [1, 4] is on record?
A: > 40 mg/kg

Q: What about the ED50 [1, 5] of the same molecule?
A: < 10 mg/kg

Q: And the ED50 [1, 6]?
A: 10 mg/kg

Q: What about the ED50 [1, 7] of the same molecule?
A: < 10 mg/kg

Q: How did the ED50 [1, 4] turn out when CN1Cc2c(ccn2C)C(c2ccc(Cl)cc2)C1.Cl (stereo not drawn) [1,6-dimethyl-4-(p-chlorophenyl)-4,5,6,7-tetrahydro-pyrrolo-[2,3-c]pyridine hydrochloride] was run?
A: < 10 mg/kg

Q: What about the ED50 [1, 5] of the same molecule?
A: < 10 mg/kg

Q: And the ED50 [1, 6]?
A: < 10 mg/kg

Q: What about the ED50 [1, 7] of the same molecule?
A: < 10 mg/kg

Q: What about the IC50 [2] of the same molecule?
A: 40 nM

Q: What about the IC50 [3] of the same molecule?
A: 1500 nM

Q: With CN1Cc2c(ccn2C)C(c2ccc(F)cc2)C1.Cl (stereo not drawn) [1,6-dimethyl-4-(p-fluorophenyl)-4,5,6,7-tetrahydro-pyrrolo-[2,3-c]pyridine hydrochloride] as the molecule, how does the ED50 [1, 4] read?
A: < 10 mg/kg

Q: And the ED50 [1, 5]?
A: < 10 mg/kg

Q: And the ED50 [1, 6]?
A: < 10 mg/kg

Q: What about the ED50 [1, 7] of the same molecule?
A: < 10 mg/kg

Q: What about the IC50 [2] of the same molecule?
A: 180 nM

Q: What about the IC50 [3] of the same molecule?
A: 6700 nM

Q: For Cc1ccc(C2CN(C)Cc3c2ccn3C)cc1.Cl (stereo not drawn) [1,6-dimethyl-4-(p-tolyl)-4,5,6,7-tetrahydro-pyrrolo-[2,3-c]pyridine hydrochloride], which ED50 [1, 4] is on record?
A: > 40 mg/kg

Q: What about the ED50 [1, 5] of the same molecule?
A: < 10 mg/kg

Q: And the ED50 [1, 6]?
A: 16 mg/kg

Q: What about the ED50 [1, 7] of the same molecule?
A: < 10 mg/kg

Q: What about the IC50 [2] of the same molecule?
A: 40 nM

Q: And the IC50 [3]?
A: 4900 nM

Q: With Cn1ccc2c1CNCC2c1ccc(Br)cc1.O=C(O)/C=C\C(=O)O (stereo not drawn) [1-methyl-4-(p-bromophenyl)-4,5,6,7-tetrahydro-pyrrolo-[2,3-c]pyridine maleate] as the molecule, how does the ED50 [1, 4] read?
A: 36 mg/kg

Q: And the ED50 [1, 5]?
A: 10 mg/kg

Q: And the ED50 [1, 6]?
A: 30 mg/kg

Q: What about the ED50 [1, 7] of the same molecule?
A: 40 mg/kg

Q: And the IC50 [2]?
A: 530 nM

Q: And the IC50 [3]?
A: 6900 nM

Q: CCN1Cc2c(ccn2C)C(c2ccc(C)cc2)C1.Cl (stereo not drawn) [1-methyl-4-(p-tolyl)-6-ethyl-4,5,6,7-tetrahydro-pyrrolo-[2,3-c]pyridine hydrochloride] was tested. Which ED50 [1, 4] did it give?
A: > 40 mg/kg

Q: What about the ED50 [1, 5] of the same molecule?
A: < 10 mg/kg

Q: What about the ED50 [1, 6] of the same molecule?
A: 10 mg/kg

Q: What about the ED50 [1, 7] of the same molecule?
A: > 40 mg/kg

Q: And the IC50 [2]?
A: 20 nM

Q: And the IC50 [3]?
A: 600 nM
